Source: patent publication US20100331363A1, “TREATMENT OF MITOCHONDRIAL DISORDERS USING A FARNESYL TRANSFERASE INHIBITOR” (Link Medicine Corporation, priority 2008, published 2010)
Entries after “also recorded” stand apart in the source; their conditions may differ.

Key:
[1] = test system: LC3-positive puncta (autophagosomes); assay: LC3 immunostaining (LC3-positive puncta) in SH-SY5Y cells; assay type: cell-based, human; conditions: 100 nM, SH-SY5Y (FIG. 8b)
Procedure: Cell culture and immunocytochemistry: SH-SY5Y cells were grown in DMEM medium supplemented with 10% FBS and 1% pen/strep at 37° C. and 5% CO2. Cells were differentiated with 10 μM retinoic acid for 48 hr, then treated with the either rapamycin (100 nM or 1 μM) or with 100 nM of either LNK-754-TS or Tipifarnib for 48-72 hr. Cells were then fixed with 4% paraformaldehyde and stained for LC3 (Novus biological, NB100-2331, dilution 1:800) followed by secondary Alexa-564 anti-Rabbit (A-11011).
Autophagy was measured in a neuroblastoma cell culture system by three distinct approaches: quantitation of autophagy-related mRNA's, immunofluorescence microscopy of autophagosomes, and biochemical detection of the microtubule-associated protein 1 light chain 3 (LC3) a key protein that is required for autophagosome formation. Differentiated human neuroblastoma cells (SH-SY5Y) were treated for 72 hr with LNK-754-TS (0.01-100 nM), Zarnestra® (also referred to herein as tipifarnib) (100 nM) or rapamycin (1 μM).

[2] = test system: autophagy-related gene transcripts; assay: mRNA of autophagy-related genes (Atg1, p62) in SH-SY5Y cells; assay type: cell-based, human; conditions: 100 nM
Procedure: Quantitative real-time PCR: Gene expression profiles were done by qPCR on series of known autophagy genes. RNA was extracted with Tri-reagent (Sigma), and cDNAs generated using iScript (Biorad). qPCR analysis was carried out in a 96 well plate using an iCycler (BioRad, Hercules, Calif.), and iQ SYBR Green Supermix (Biorad) according to the manufacturer's specifications.
Rapamycin is a well-characterized autophagy stimulator that acts through inhibition of mTOR, a kinase involved in nutrient signaling and regulation of cell growth and survival.

Aβ = Aβ immunohistochemistry, Thioflavin-S and Aβ40/Aβ42 ELISA in APP/PS1 transgenic mice; assay type: in vivo, mouse
Text: Immunohistochemistry and quantification of stained cells: For evaluation of α-synuclein immunoreactivity (IR), 5 sagittal cryo-cut sections (10 μm slice thickness) from five different layers were used for counting of IR cells in the cortex and hippocampus. Brain sections were stained with a monoclonal human α-synuclein specific antibody (Alexis®; Cat#804-258-L001; dilution 1:5), followed by a secondary Ab Cy 2-Goat Anti-Rat (Jackson ImmunoResearch®; dilution 1:200). IR positive cells were quantified using specialized image analysis software (Image Pro Plus, version 4.5.1.29). For Tau transgenic animals, 5 μm thick coronal paraffin sections were stained with the monoclonal mouse anti-human TAU-antibodies (AT180—1:100; HT7—1:500) and visualized using an anti-mouse Cy3 secondary antibody (1:500, Jackson Laboratories®). Images were evaluated with ImageProPlus (version 6.2) image analysis software. For APP/PS1 transgenic animals sagittal hemisections (40 μm) were collected and processed for Aβ immunohistochemistry using an 6E10 antibody, Thioflavin-S staining. Primary antibodies were detected by the ABC method.
ELISA quantification of α-Synuclein in the α-Synuclein transgenic animals: Brain homogenate was centrifuged and the supernatant saved as fraction F1. The pellet was washed then resuspended and saved as fraction F2. Plates (Nunc, 464718) were coated with SYN-1 (1:1000, BD Transduction Labs, 610787). Monomeric recombinant α-synuclein was included as an internal standard. Biotinylated antibody FL-140 (1:300, Santa Cruz Biotechnology, sc-10717-B) and ExtrAvidin-Alkaline phosphatase (3:5000, Sigma, E2636) was added followed by pNPP substrate solution (Sigma, N1891). Raw absorbance (405 nm) was then normalized to the total protein concentration of each sample. In the APP/PS1 transgenic animal, brains were homogenized and the supernatant, Faction 1, was separated from the pellet. The pellets were further processed with addition of NP40 and Triton X-100. The supernatant was separated from the pellet as the insoluble membrane, Fraction 2, and was dissolved in 8M Guanidine. To quantify the amount of human Aβ-40 and Aβ-42, ELISA kits were used (The Genetics Company, Zurich, Switzerland).
Mice were treated with LNK-754-TS for two months, tested for performance in the Morris water maze (MWM), and then sacrificed for immunohistochemical (Aβimmunoreactivity) and biochemical (ELISA measurement of Aβ40 and Aβ42) analysis.

isolated islets / INS1 = assay: Oxygen consumption, Seahorse XF24 bioenergetic assay; assay type: cell-based; conditions: 1 nM
Procedure: Impaired mitochondrial function is shown by a decreased rate of oxygen consumption. […] The effect of LNK-754 at 1 nM and 10 nM doses on oxygen consumption was determined. Oxygen consumption in INS1 was measured using a Seahorse XF24 bioenergetic assay. Assays have been previously described in detail (See, Wu M, et al. Am J Physiol Cell Physiol 2007; 292:C125-36).

INS1 cells [3] = assay: Glucolipotoxicity-induced mitochondrial fragmentation in INS1 cells; assay type: cell-based; conditions: 1 nM
Procedure: To determine the effect of LNK-754 on glucolipotoxicity-induced mitochondrial fragmentation, LNK-754 at 1 nM and 100 nM concentrations was cultured with INS1 cells in media containing palmitate according to methods and procedures described in Molina et. al. 2009. […] Treatment with 1 nM LNK-754 results in about a 70% increase in normal mitochondrial morphology in comparison with no treatment with LNK-754. […] Treatment with 1 nM LNK-754 results in about a 55% decrease in fragmentation induced by palmitate. Low dose LNK-754 protected INS1 cells from glucolipotoxicity-induced mitochondrial fragmentation as evident from the striking mitochondrial imaging results.

[4] = test system: 3T3H-ras (61 L) xenograft tumor; Ras farnesylation; conditions: continuous infusion, 7 day treatment, cited from earlier work
GGTase = GGTase (Homo sapiens, UniProt P49354+P53609); assay: GGTase inhibitory activity, general statement; assay type: biochemical; conditions: selective FTase inhibitors
INS1 cells [5] = assay: Palmitate-induced cell death of INS1 cells, propidium iodide flow cytometry; assay type: cell-based; conditions: low dose; palmitate 18 hours, compound last 12 hours
Procedure: LNK-754 was tested using a cell death assay to determine whether it had any effect on palmitate-induced cell death. For Example, one example of such an assay is as follows: INS1 cells were incubated in control medium or in medium containing palmitate for 18 hours and either rapamycin or LNK-754 at 0.25 nM, 0.5 nM, 1 nM, 10 nM, and 100 nM were added for the last 12 hours. At the end of the incubation, the cells were washed with PBS and stained with 1 μg/ml propidium iodide (e.g., Molecular Probes, P3566). FACS data analysis was performed and cell debris was excluded. […] At low dose, LNK-754 behaves similar to rapamycin.

[6] = 0.9 mg/kg once every 24 hr, two months

Structure (SMILES) | number of LC3-positive puncta [1] | transcript encoding p62 ([2]; SH-SY5Y (FIG. 8e)) | mRNA levels of a set of autophagy-related genes (incl. Atg1) ([2]; SH-SY5Y (FIG. 8d)) | Thioflavin-S staining in the subiculum (Aβ; [6]) | levels of Aβ40/Aβ42 from whole brain fractions, ELISA (Aβ; [6]) | number of Aβ (6E10) immunoreactive plaques in the subiculum (Aβ; 0.9 mg/kg once every 24 hr, two months, vs vehicle) | Aβ40 or Aβ42 levels, Aβ immunoreactivity or Thio-S staining (Aβ; 0.9 mg/kg, 12 days) | oxygen consumption (OCR) (isolated islets / INS1) | decrease in fragmentation induced by palmitate (INS1 cells [3]) [%] | increase in normal mitochondrial morphology (INS1 cells [3]; palmitate, vs no treatment) [%] | inhibition of Ras farnesylation at which significant inhibition of tumor growth was seen ([4]; tumor tissue) | continuous serum level at which significant inhibition of tumor growth was seen [4] | GGTase inhibitory activity (GGTase) | palmitate-induced cell death (INS1 cells [5])
C#Cc1cccc(-c2cc(=O)n(C)c3ccc([C@](O)(c4ccc(Cl)cc4)c4cncn4C)cc23)c1 [LNK-754-TS, (R)-6-[(4-chlorophenyl)-hydroxyl-(1-methyl-1-H-imidazol-5-yl)-methyl]-4-(3-ethynylphenyl)-1-methyl-2-(1H)-quinonlinone (2S, 3S)-dihydroxybutanedioate] | distinct increase; also recorded: increased | induced upregulation; also recorded: increased | unaffected | no statistically significant changes | no statistically significant changes | lesser, but still significant, effect; also recorded: significant decrease | no significant reduction | – | – | – | – | – | – | –
C#Cc1cccc(-c2cc(=O)n(C)c3ccc([C@](O)(c4ccc(Cl)cc4)c4cncn4C)cc23)c1 [LNK-754, (R)-6-[(4-chlorophenyl)-hydroxyl-(1-methyl-1-H-imidazol-5-yl)-methyl]-4-(3-ethynylphenyl)-1-methyl-2-(1H)-quinonlinone] | – | – | – | – | – | – | – | increases oxygen consumption | ~55 | ~70 | at least 50% | above 100 ng/mL | little to no GGTase inhibitory activity | protects INS1 cells from palmitate toxicity
